Experimental data reported in patent publication US20240368133A1, “Compounds for the Treatment of Pain, in Particular, Neuropathic Pain, and/or Other Diseases or Disorders that are Associated with AT2R and/or AT2R Mediated Signaling” (Confo Therapeutics N.V., priority 2021, published 2024).

How the values were obtained:
[1] = Metabolic stability in hepatocytes, rat; format: in vitro ADME; conditions: hepatocytes (cryopreserved), read-out: Rat Clint (μL/min/10^6 cells)
Experimental: The aim of this assay is to determine the metabolic stability of the compound in hepatocytes (cryopreserved) of different species (mouse CD1, rat Sprague Dawley, dog Beagle). Low hepatocyte stability may result in the formation of unwanted metabolites, high clearance, and therefore is not desirable. The decrease in parent was assessed by measuring the percentage remaining by LC-MS/MS analysis. The batches of hepatocytes were tested for quality control using Testosterone, Umbelliferone and Caffeine as reference compounds.
A 10 mM stock solution of test compound in DMSO was first diluted in DMSO to 3 mM, and then in modified Krebs-Henseleit buffer (Sigma, K3753) to 5 μM. This compound dilution was added to a suspension of pooled cryopreserved hepatocytes (BioIVT) at 37° C. under gentle shaking. Final reaction conditions were: 1 μM of test compound, <0.1% DMSO, 0.5 million viable hepatocytes/mL, and 75 μL incubation volume.
After 0, 10, 20, 45, 90, 120 and 180 min of incubation, the reaction was terminated with 3 volumes of MeCN:MeOH (2:1) containing diclofenac as analytical internal standard. Samples were mixed, centrifuged and the supernatant analyzed by LC-MS/MS (systems API4000). The instrument responses (ratios of test compound and internal standard peak areas) were referenced to the zero time point samples (considered as 100%) in order to determine the percentage of compound remaining. Plots of percentage compound remaining were used to determine the intrinsic clearance in the hepatocyte incubations.
Testosterone (1 μM) and Umbelliferone (1 μM) and Caffeine (1 μM) were used as reference compounds, being unstable and stable compounds respectively. If the hepatocyte stability values for these controls are not in the range determined by the historical data, the assay is not validated.

human AT1R = human AT1R (Homo sapiens (Human), UniProt P30556); assay: Counterscreen radioligand binding assay, displacement of 125I-[Sar1, Ile8]-Angiotensin II, hAT1R WT; conditions: for inhibition at 1 µM / inhibition at 10 µM: 125I-[Sar1, Ile8]-Ang II, semi-quantitative score; for inhibition at 1 µM: compound at 1 μM, read-out: % Displaced radioligand at 1 μM; for inhibition at 10 µM: compound at 10 μM, read-out: % Displaced radioligand at 10 μM
Method in brief: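 Compounds displaced 0.05 nM 125I-[Sar1, Ile8]-Ang II from human AT1R in HEK-293 membranes (1 h, 25° C; Tris/MgCl2/EDTA/BSA buffer, pH 7.4). Readout was filtration and scintillation counting, with non-specific binding set by 10 μM [Sar1]-Ang II. Values are % displacement at 1 μM and […], or IC50 from eight-point four-parameter fits.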

[2] = Liver microsomal stability, human; format: in vitro ADME; conditions: pH 7.4, liver microsomes
Experimental: (§1) Microsomal incubations were carried out in 96-well plates in 5 aliquots of 40 μL each (one for each time point). Liver microsomal incubation medium contained PBS (100 mM, pH 7.4), MgCl2 (3.3 mM), NADPH (3 mM), glucose-6-phosphate (5.3 mM), glucose-6-phosphate dehydrogenase (0.67 units/ml) with 0.42 mg of liver microsomal protein per ml. Control incubations were performed replacing the NADPH-cofactor system with PBS. Test compound (2 μM, final solvent concentration 1.6%) was incubated with microsomes at 37° C., shaking at 100 rpm. Incubations were performed in duplicates. Five time points over 40 minutes have been analyzed. The reactions were stopped by adding 12 volumes of 90% acetonitrile-water to incubation aliquots, followed by protein sedimentation by centrifuging at 5500 rpm for 3 minutes. […]. Supernatants were analyzed using the HPLC system coupled with tandem mass spectrometer (API3000 PE Sciex). Acquisition and analysis of the data were performed using Analyst 1.5.2 software (PE Sciex). The elimination constant (kel), half-life (t½) and intrinsic clearance (Clint) were determined in plot of […] versus time, using linear regression analysis:
(§2) A 10 mM stock solution of compound in DMSO is diluted three-fold in DMSO. This pre-diluted compound solution is then further diluted to 2 μM in a 50 mM phosphate buffer (PBS, pH 7.4) and pre-warmed at 37° C. This compound dilution is mixed F2 with microsomal/cofactor mix at 37° C. under shaking at 300 rpm. Final reaction conditions are: 100 μL incubation volume, 1 μM of test compound (in duplicate), <0.1% DMSO, 0.5 mg/mL microsomes, 0.6 U/mL Glucose-6-phosphate-dehydrogenase (G6PDH, Roche, 10127671001), 3.3 mM MgCl2 (Sigma, M2670), 3.3 mM glucose-6-phosphate (Sigma, G-7879) and 1.3 mM NADP+ (Sigma, N-0505).
(§3) After 60 min of incubation at 300 rpm and 37° C., the reaction was stopped with 3 volumes of STOP solution (acetonitrile/MeOH 2/1 with diclofenac as internal standard). For the time point zero, 3 volumes of STOP solution were added to the compound dilution before the microsome mix was added. Six time points over 60 minutes have been analyzed. The samples of all time points were centrifuged, filtered and the supernatant analyzed by LCMS/MS (systems API4000).
(§4) The instrument responses (peak areas/IS peak area) were referenced to the zero time-point samples (considered as 100%) in order to determine the percentage of compound remaining.
(§5) Testosterone (1 μM) and Propranolol and Caffeine (1 μM) were used as reference compounds, being unstable and stable compounds respectively. If the microsomal stability values for these controls are not in the range determined by the historical data, the assay is not validated. The solubility of the compound in the final test concentration in 50 mM buffer pH 7.4 is checked by microscope to indicate whether precipitation is observed or not. If a precipitate is observed, no data of microsomal stability is generated.

[3] = Liver microsomal stability, rat; format: in vitro ADME; conditions: male, pH 7.4, liver microsomes
Experimental: Mouse hepatic microsomes were isolated from pooled (50), perfused livers of male Balb/c mice. Rat hepatic microsomes were isolated from pooled (15), perfused livers of male Wistar rats. Isolation was performed according to the standard protocol (Hill, J. R. in Current Protocols in Pharmacology 7.8.1-7.8.11, Wiley Interscience, 2003). The batches of microsomes were tested for quality control using Imipramine, Propranolol and Verapamil as reference compounds.
as §1
(§6) Mouse hepatic microsomes were isolated from pooled, perfused livers of male CD1 mice. Rat hepatic microsomes were isolated from pooled, perfused livers of male Sprague Dawley rats. Dog hepatic microsomes were isolated from pooled, perfused livers of male Beagle dogs. The batches of microsomes were tested for quality control using Testosterone, Propranolol and Caffeine as reference compounds.
as §2, §3, §4, §5

human AT2R fused to Cb23 = human AT2R fused to Cb23 (Homo sapiens, UniProt P50052); assay: Radioligand binding assay, displacement of 125I-[Sar1, Ile8]-Angiotensin II, hAT2R Cb23; conditions: displacement of 125I-[Sar1, Ile8]-Angiotensin II, human AT2R fused to Cb23, HEK-293 cell membrane preparations; read-out: Binding affinity on hAT2R_Cb23 IC50
Method in brief: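 Membranes from HEK-293 cells expressing human AT2R fused to Cb23 were incubated with 0.05 nM 125I-[Sar1, Ile8]-Angiotensin II in 100 μL buffer (50 mM Tris, 5 mM MgCl2, 1 mM EDTA, 0.1% BSA, pH 7.4) for one hour at 25° C. Ligands were tested as eight-point dose-response curves in duplicate, with C21 and Angiotensin II as references.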

[4] = Liver microsomal stability, dog; format: in vitro ADME; conditions: male, Beagle, pH 7.4, liver microsomes
Experimental: as §6, §2, §3, §4, §5

CYP2D6 = CYP2D6 (Homo sapiens (Human), UniProt P10635); assay: CYP inhibition, CYP2D6; format: in vitro ADME; conditions: CYP 2D6, ref. inhibitor conc. 0.5 μM
Experimental: The aim of this assay is to determine the inhibitory potential of a test compound. A major concern for drug-drug-interaction is cytochrome P450 inhibition. Reversible CYP inhibition was determined in human liver microsomes using specific probe substrates for human cytochrome P450 isoenzymes CYP1A2, 2C9, 2C19, 2D6 and 3A4. […]
A 10 mM stock solution of test compound is prepared in methanol. This stock is further serially diluted 1:3 in methanol and then added to mixture containing 50 mM potassium phosphate buffer pH7.4, human liver microsomes (BD Gentest) and probe substrate. After pre-warming 5 min at 37° C., the reaction is started by adding co-factor mix ([…] glucose-6-phosphate, 1.7 mg/mL NADP, 6 U/mL of glucose-6-phosphate dehydrogenase), resulting in a final concentration of test compound at 10 μM (2% MeOH).
Final concentrations of co-factor mix components are as follows: 1.56 mg/mL glucose-6-phosphate, 0.34 mg/mL NADP, 1.2 U/mL of glucose-6-phosphate dehydrogenase.
After incubation at 37° C., the reaction (aliquot of 50 μL) is terminated with 150 μL CH3CN:MeOH (2:1) solution with internal standard (warfarin for 2C9, diclofenac for all other tested isoforms). Samples are centrifuged and the supernatant fractions analyzed by LC-MS/MS.
The instrument responses (ratio of test compound and internal standard peak areas) are referenced to those for solvent controls (assumed as 100%) in order to determine the percentage reduction in probe metabolism. Percent of control activity vs. concentration plots are generated and fitted using GraphPad Prism software to generate IC50.

Sequence of human AT1R (P30556 whole entry): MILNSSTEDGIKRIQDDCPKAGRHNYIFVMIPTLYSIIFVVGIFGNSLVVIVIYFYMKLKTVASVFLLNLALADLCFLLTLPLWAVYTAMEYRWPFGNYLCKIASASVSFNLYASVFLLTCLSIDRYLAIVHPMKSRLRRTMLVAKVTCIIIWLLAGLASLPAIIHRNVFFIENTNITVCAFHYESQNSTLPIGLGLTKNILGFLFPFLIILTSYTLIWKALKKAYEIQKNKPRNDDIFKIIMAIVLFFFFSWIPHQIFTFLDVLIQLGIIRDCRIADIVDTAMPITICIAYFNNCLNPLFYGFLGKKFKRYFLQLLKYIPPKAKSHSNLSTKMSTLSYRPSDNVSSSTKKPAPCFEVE
Sequence of human AT2R fused to Cb23 (P50052 whole entry, looked up, the tested form may be a part): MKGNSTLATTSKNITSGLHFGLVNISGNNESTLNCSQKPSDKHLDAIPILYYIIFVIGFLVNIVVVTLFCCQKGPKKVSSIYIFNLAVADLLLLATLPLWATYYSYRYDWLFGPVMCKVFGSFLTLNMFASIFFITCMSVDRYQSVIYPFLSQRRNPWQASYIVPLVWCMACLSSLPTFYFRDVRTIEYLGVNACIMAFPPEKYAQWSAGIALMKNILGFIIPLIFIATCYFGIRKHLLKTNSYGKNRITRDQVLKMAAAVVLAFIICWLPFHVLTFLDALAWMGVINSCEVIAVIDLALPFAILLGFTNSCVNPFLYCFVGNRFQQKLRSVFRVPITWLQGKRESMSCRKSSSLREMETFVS
Sequence of CYP2D6 (P10635 whole entry): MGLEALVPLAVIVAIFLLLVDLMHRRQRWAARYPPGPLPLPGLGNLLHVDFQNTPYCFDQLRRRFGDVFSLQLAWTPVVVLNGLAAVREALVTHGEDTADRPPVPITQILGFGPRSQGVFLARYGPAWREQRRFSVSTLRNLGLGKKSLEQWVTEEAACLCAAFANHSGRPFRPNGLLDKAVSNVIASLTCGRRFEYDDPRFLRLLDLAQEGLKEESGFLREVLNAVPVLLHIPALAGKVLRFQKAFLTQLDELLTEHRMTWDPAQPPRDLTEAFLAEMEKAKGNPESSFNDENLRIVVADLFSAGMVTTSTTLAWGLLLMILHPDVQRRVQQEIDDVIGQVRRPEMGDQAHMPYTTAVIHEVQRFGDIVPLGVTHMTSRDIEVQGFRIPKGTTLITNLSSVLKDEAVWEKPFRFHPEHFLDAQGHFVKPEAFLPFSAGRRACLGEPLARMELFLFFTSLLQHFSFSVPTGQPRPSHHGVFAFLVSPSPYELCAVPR

SMILES	hepatocyte CLint [1] [µL/min/1e6 cells]	inhibition at 1 µM (human AT1R) [%]	inhibition at 10 µM (human AT1R) [%]	IC50 (human AT1R; HEK-293 cell membranes, read-out: Binding affinity On hAT1R IC50) [nM]	microsomal CLint [2] [µL/min/mg]	microsomal CLint [3] [µL/min/mg]	IC50 (human AT2R fused to Cb23) [nM]	microsomal CLint at 1 µM [4] [µL/min/mg]	inhibition at 25 min, 0.5 µM (CYP2D6) [%]
CC(C)Cc1cc(F)c(-c2nn[nH]n2)c(N2CC(C)N(Cc3cccnn3)C(C)C2)c1 (centres unmarked) [Compound A-184, 3-[[4-[3-fluoro-5-isobutyl-2-(2H-tetrazol-5-yl)phen-yl]-2,6-dimethyl-piperazin-1-yl]-methyl]pyridazine]	2	< 30	< 30	33600	18	19	0.893		
COc1ccnc(CN2CCN(c3cc(CC(C)C)cc(F)c3-c3nn[nH]n3)C[C@@H]2C)c1 [Compound A-227, (2S)-4-[3-fluoro-5-isobutyl-2-(2H-tetrazol-5-yl)phenyl]-1-[(4-methoxy-2-pyridyl)methyl]-2-methyl-piperazine]		< 30	< 30		16.5	22.3	8.75	< 11.7	
Cc1cccnc1CN1CCN(c2cc(CC(C)C)cc(F)c2-c2nn[nH]n2)C[C@@H]1C [Compound A-228, (2S)-4-[3-fluoro-5-isobutyl-2-(2H-tetrazol-5-yl)phenyl]-2-methyl-1-[(3-methyl-2-pyridyl)methyl]piperazine]		< 30	< 30		97.6	28.3	14.9	< 11.7	
Cc1ccnc(CN2CCN(c3cc(CC(C)C)cc(F)c3-c3nn[nH]n3)C[C@@H]2C)c1 [Compound A-229, (2S)-4-[3-fluoro-5-isobutyl-2-(2H-tetrazol-5-yl)phenyl]-2-methyl-1-[(4-methyl-2-pyridyl)methyl]piperazine]		< 30	< 30		21.6	24.8	7.98	< 11.7	
C=C[C@H]1C[N@@]2CC[C@H]1C[C@@H]2[C@@H](O)c1ccnc2ccc(OC)cc12 [quinidine, reference compound]									87.3
